Calls of active or inactive are those of the source. For most assays here, no stated cut-off is given here; in the data, actives have a measured EC50 and inactives only a lower limit.
Experiments:
[1] = inhibitors of SNCA 5'UTR-driven reporter translation, confirmation, H4 neuroglioma cells, luminescence (AID 1988); format: functional, cell-based
[2] = Luminescence Cell-Based Dose Response HTS to Identify Inhibitors of 5'UTR Stem-Loop Driven Prion Protein mRNA Translation in H4 Neuroglioblastoma Cells. [Related pubchem assays: 1827 (Project Summary), 1813 (Primary HTS)]; format: functional
[3] = inhibitors of firefly luciferase expression or activity, dose response, H4 neuroglioma cells, luminescence (AID 1990); format: functional, cell-based
[4] = P. falciparum Dd2 growth inhibitors, dose response, SYBR Green, cherry-picked samples (AID 1159567); format: functional, cell-based
[5] = cells; format: functional, cell-based
[6] = cells; format: functional, cell-based; remark: listed apart in the source
[7] = target: T1, Fatty acid synthase (Homo sapiens, UniProt P49327); assay: FAS thioesterase domain inhibitors, dose response, biochemical, endpoint fluorescence intensity, uHTS hits (AID 624327); format: functional;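 further: fluorescence from hydrolysis of an O-methyl fluorescein acyl ester substrate by the enzyme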
T1 sequence (P49327 whole entry, the tested form may be a part): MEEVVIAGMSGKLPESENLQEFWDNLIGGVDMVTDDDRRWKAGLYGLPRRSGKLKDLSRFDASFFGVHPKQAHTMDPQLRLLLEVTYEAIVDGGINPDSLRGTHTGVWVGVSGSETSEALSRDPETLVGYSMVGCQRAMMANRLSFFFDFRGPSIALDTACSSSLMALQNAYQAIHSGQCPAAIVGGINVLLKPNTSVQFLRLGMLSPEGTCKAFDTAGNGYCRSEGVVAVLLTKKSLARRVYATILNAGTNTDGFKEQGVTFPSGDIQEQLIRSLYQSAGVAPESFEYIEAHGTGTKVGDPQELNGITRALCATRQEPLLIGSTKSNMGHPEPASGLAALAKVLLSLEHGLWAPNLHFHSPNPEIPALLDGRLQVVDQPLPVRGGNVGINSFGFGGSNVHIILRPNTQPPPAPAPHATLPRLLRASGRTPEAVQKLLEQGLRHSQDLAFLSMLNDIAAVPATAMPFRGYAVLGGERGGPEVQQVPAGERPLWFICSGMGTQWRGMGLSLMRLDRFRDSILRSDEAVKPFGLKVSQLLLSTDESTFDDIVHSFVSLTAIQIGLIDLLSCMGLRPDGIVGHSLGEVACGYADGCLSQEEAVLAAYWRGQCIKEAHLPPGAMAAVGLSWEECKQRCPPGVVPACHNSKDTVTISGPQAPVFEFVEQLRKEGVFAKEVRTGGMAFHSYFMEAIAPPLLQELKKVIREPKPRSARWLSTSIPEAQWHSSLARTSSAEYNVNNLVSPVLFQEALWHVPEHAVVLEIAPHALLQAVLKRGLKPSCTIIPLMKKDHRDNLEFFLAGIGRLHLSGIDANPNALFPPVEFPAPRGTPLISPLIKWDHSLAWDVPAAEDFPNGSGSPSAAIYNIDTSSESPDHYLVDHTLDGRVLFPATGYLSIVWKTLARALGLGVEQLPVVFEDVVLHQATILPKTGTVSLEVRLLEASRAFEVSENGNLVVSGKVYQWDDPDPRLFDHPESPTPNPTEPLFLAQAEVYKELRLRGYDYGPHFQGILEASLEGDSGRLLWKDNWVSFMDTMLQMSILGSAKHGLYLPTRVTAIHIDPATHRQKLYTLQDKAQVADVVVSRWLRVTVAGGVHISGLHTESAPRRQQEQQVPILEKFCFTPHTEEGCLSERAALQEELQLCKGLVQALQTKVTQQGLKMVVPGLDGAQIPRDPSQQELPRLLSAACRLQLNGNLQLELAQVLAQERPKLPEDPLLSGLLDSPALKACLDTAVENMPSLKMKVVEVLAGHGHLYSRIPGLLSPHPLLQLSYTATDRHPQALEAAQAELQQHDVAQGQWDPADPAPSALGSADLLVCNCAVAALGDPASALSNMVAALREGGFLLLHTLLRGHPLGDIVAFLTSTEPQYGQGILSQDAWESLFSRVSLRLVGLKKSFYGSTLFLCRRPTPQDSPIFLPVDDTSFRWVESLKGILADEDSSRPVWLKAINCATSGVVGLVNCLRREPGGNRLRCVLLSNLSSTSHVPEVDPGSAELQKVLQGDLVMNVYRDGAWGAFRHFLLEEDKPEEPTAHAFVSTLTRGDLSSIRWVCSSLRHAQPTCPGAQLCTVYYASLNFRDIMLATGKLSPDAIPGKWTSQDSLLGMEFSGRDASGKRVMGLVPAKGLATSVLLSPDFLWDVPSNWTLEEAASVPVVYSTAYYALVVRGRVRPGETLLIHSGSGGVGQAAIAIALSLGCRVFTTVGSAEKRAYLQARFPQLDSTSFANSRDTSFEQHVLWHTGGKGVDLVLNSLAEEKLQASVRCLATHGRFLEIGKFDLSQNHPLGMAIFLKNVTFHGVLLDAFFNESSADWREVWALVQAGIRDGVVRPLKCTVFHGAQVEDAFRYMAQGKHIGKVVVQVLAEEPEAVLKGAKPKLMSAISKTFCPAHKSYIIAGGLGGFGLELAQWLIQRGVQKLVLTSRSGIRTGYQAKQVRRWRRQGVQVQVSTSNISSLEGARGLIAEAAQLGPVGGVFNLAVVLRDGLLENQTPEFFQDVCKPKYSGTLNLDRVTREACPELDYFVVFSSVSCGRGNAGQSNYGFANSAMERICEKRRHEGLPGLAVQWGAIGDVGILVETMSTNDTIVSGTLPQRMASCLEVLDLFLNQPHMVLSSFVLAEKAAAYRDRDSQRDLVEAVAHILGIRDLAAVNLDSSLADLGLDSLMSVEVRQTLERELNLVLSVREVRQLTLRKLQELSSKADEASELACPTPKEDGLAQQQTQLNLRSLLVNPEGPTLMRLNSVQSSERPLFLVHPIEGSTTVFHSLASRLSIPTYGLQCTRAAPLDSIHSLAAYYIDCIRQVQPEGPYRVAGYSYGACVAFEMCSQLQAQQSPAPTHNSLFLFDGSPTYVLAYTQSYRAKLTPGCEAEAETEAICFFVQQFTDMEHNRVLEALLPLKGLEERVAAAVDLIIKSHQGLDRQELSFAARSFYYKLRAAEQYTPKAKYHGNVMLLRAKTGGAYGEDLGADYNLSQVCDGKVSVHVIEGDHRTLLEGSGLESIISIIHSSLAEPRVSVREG

[8] = target: T1, Fatty acid synthase; assay: FAS thioesterase domain inhibitors, dose response, biochemical, kinetic fluorescence intensity (AID 624326); format: functional;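 further: rate of fluorescence rise from hydrolysis of a fluorogenic O-methyl fluorescein ester substrate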
[9] = target: T2, Calpain-2 catalytic subunit (Sus scrofa, UniProt P43367); assay: pig calpain II inhibitor potency, dose response, biochemical, fluorogenic peptide substrate (AID 1420); format: functional
T2 sequence (P43367 whole entry): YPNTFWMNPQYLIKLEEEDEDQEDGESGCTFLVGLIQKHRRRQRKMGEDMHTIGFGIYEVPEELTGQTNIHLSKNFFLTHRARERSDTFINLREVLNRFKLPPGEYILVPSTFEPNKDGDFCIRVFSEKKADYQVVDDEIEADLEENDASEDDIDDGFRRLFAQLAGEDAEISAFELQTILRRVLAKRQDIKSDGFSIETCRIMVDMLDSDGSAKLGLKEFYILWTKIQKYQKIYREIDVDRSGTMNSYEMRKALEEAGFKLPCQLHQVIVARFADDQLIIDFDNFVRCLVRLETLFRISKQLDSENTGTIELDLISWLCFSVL

[10] = cytotoxicity toward DRD oncogenic fibroblasts, dose response, cell-based, non-viral oncogenic, luminescence (AID 1934); format: functional; settings: Homo sapiens
[11] = system: BJ; assay: cytotoxicity toward BJ-TERT fibroblasts, dose response, cell-based, RAS-independent, luminescence (AID 1933); format: functional; settings: Homo sapiens
[12] = system: BJ; assay: cytotoxicity toward BJ-TERT-LT-ST fibroblasts, dose response, cell-based, RAS-independent, luminescence (AID 1935); format: functional; settings: Homo sapiens;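 further: BJ fibroblasts immortalized with TERT plus LT and ST oncogenes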
[13] = system: BJ; assay: cells; format: functional, cell-based; settings: Homo sapiens
[14] = HepG2 cell cytotoxicity, dose response, cytotoxicity control for Shn3 inhibitor project, CellTiter-Glo, cherry-picked (AID 624134); format: functional, cell-based
[15] = system: H4; assay: Luminescence Cell-Based Dose Response HTS to Identify Activators of 5'UTR Stem-Loop Driven Prion Protein mRNA Translation in H4 Neuroglioblastoma Cells. [Related pubchem assays: 1829 (Project Summary), 1814 (Primary HTS)]; format: functional; settings: Homo sapiens
[16] = Luminescence Cell-Based Dose Response HTS to Identify Activators of Luciferase Translation or Activity in H4 […] Cells. [Related pubchem assays: 1829 (Project Summary), 1814 (Primary HTS)]; format: functional
[17] = system: Vero; assay: cells; format: functional; settings: Chlorocebus sabaeus
[18] = Luminescence Cell-Based Dose Retest to Confirm Inhibitors of Cancer Stem Cells. [Related pubchem assays (depositor defined):AID2717, AID2721]; format: functional; settings: Homo sapiens

## COC(=O)c1c(C)n(Cc2ccccc2)c2ccc(O)cc12
[1]
  EC50: > 120 µM (not active)
[2]
  EC50: > 120 µM (not active)
[3]
  EC50: > 120 µM (not active)

## COc1ccc2c3c(n(C)c2c1)[C@@H](CO)N(CC1CCCCC1)CC31CCN(C(=O)CN(C)C)CC1
[4]
  AC50: 5.49 µM (active)

## COc1ccc(N2CCN(C(=O)COc3ccc4c(C)c(C)c(=O)oc4c3C)CC2)cc1
[5]
  EC50: > 350 µM (not active)
[6]
  EC50: > 350 µM (not active)

## O=C(NCc1ccc2c(c1)OCO2)c1ccc2c(c1)N(Cc1c(F)cccc1Cl)C(=O)CS2
[7]
  IC50: 10.3 µM (active)
[8]
  IC50: 6.15 µM (active)

## CCCCCCCC1CC(=O)C=C(C)C1C(=O)OCC (stereo unspecified)
[5]
  EC50: > 350 µM (not active)
[6]
  EC50: > 350 µM (not active)

## O=[N+]([O-])c1cccc(/C=N\N=C2c3ccccc3-c3ccccc32)c1O
[9]
  IC50: < 0.4 µM (not active)

## Cc1ccc(C2=NS(=O)(=O)N(C)C(C(=O)NC3CCCC3)=C2)cc1
[5]
  EC50: > 350 µM (not active)
[6]
  EC50: > 350 µM (not active)

## Cc1ccccc1NC(=O)CN(C)S(=O)(=O)c1ccc(-c2ccc(O)nn2)s1
[5]
  EC50: > 350 µM (not active)
[6]
  EC50: > 350 µM (not active)

## CCC1=Nc2cc(C(=O)NCCN3CCOCC3)ccc2Sc2ccc(Br)cc21
[10]
  EC50: > 150 µM (not active)
[11]
  EC50: > 150 µM (not active)
[12]
  EC50: > 150 µM (not active)
[13]
  EC50: > 150 µM (not active)

## CCN(CC)c1ccc(C(=O)NNC(=O)CCl)cc1
[9]
  IC50: 9.84 µM (active)

## c1coc(-c2nnc3n2C2(CCCC2)Cc2ccccc2-3)c1
[1]
  EC50: > 120 µM (not active)
[2]
  EC50: > 120 µM (not active)
[3]
  EC50: > 120 µM (not active)

## Nc1ccccc1Sc1ccc(C(F)(F)F)cc1[N+](=O)[O-]
[9]
  IC50: 2.55 µM (active)

## COc1ccc2c(c1)CCc1cc(C(=O)N3CCN(c4ccc(N5CCOCC5)nn4)CC3)sc1-2
[1]
  EC50: > 120 µM (not active)
[2]
  EC50: > 120 µM (not active)
[3]
  EC50: 13.6 µM (active)

## COc1ccc(-c2cc3nc(C)c(CCC(=O)NC(C)CCc4ccco4)c(C)n3n2)c(OC)c1 (stereo unspecified)
[1]
  EC50: > 120 µM (not active)
[2]
  EC50: > 120 µM (not active)
[3]
  EC50: > 120 µM (not active)

## c1ccc(OCc2nc(-c3ccncc3)no2)cc1
[5]
  EC50: > 350 µM (not active)
[6]
  EC50: > 350 µM (not active)

## C/N=C1/c2cc3cc(OC)ccc3n2CCN1Cc1ccccc1
[14]
  AC50: 45.4 µM (active)

## O=C1CC(c2ccccc2)Sc2nc3ccccc3n21 (stereo unspecified)
[15]
  EC50: 15.4 µM (active)
[16]
  EC50: 15.4 µM (active)

## CCOC(=O)c1c(NC(=O)CN2C(=O)NC3(CCC(C)CC3)C2=O)sc(C)c1-c1ccc(C)cc1 (stereo unspecified)
[5]
  EC50: 49.6 µM (active)
[6]
  EC50: > 350 µM (not active)

## Cc1cc(C(=O)Nc2ccc3c(c2)OCCO3)ccc1[N+](=O)[O-]
[2]
  EC50: 13.7 µM (active)

## CCOC(=O)/C(=C/c1ccc(OC(F)F)cc1)C1=Nn2c(nnc2-c2ccc(Cl)cc2)SC1
[17]
  CC50: 7.48 µM (active)

## COc1cc(-c2noc(C)c2C#Cc2ccccn2)cc(OC)c1OC
[1]
  EC50: 0.25 µM (active)
[18]
  AC50: 0.394 µM (active)
[2]
  EC50: > 120 µM (not active)
[3]
  EC50: 9.32 µM (active)

## CCn1cnc2c1c(=O)n(CC(=O)Nc1ccc3c(c1)OC(F)(F)O3)c(=O)n2Cc1ccccc1
[9]
  IC50: < 0.4 µM (not active)

## COC(=O)c1cc(C(=O)OCC(=O)NC2CCCCCCC2)cc([N+](=O)[O-])c1
[7]
  IC50: 7.09 µM (active)
[8]
  IC50: 8 µM (active)

Source: ChEMBL document CHEMBL1201862, “PubChem BioAssay data set” (2004)
